Assay results: patent publication US4604239A, “Antibiotics” (Eli Lilly and Company, priority 1985, dated 1986)
Values after ≈ are worked out from the molar mass of the structure shown. Like-named read-outs stand apart in the source and are kept apart here.

Legend:
[1] = test system: Enterobacter aerogenes; experiment: agar-dilution MIC; format: cell-based; details: Enterobacter aerogenes C32; Table 17
Description: The results after reading the which follows.

[2] = test system: Bacteroides thetaiotaomicron; format: cell-based
Description: (§1) The agar-dilution procedure described by the International Collaborative study (ICS) group was used to determine the minimum inhibitory concentrations (MIC's).

[3] = electrometric titration; format: physicochemical; details: electrometric titration in 66% dimethylformamide in water
Description: Antibiotic A41030 factor A is a white, crystalline solid.

[4] = solubility; format: physicochemical
[5] = test system: Bacteroides corrodens; experiment: agar-dilution MIC; format: cell-based; details: Bacteroides corrodens 1874; Table 14
[6] = test system: Streptococcus sp. Group B; experiment: agar-dilution MIC; format: cell-based; details: end point after 24 hours, Table 18
Description: (§2) The in vitro activity of antibiotic A41030 factors A and B against a number of representative aerobic, gram-positive bacteria, including Streptococcus sp. Group D, has been determined using a standard agar-dilution assay.

[7] = test system: Streptococcus sp. ATCC 10389; experiment: agar-dilution MIC; format: cell-based; details: end point after 24 hours, Table 18
Description: as §2

[8] = test system: S. pneumoniae; experiment: experimental bacterial infection in mice; format: in vivo; details: two doses subcutaneously
Description: (§3) All of the A41030 factors tested have shown in vivo antimicrobial activity against experimental bacterial infections. When two doses of test compound were administered subcutaneously to mice in illustrative infections, the activity observed is measured as an ED50 value [effective dose in mg./kg. to protect fifty percent of the test animals: See Warren Wick, et al., J. Bacteriol. 81, 233-235 (1961)].

[9] = test system: Staph. aureus; experiment: experimental bacterial infection in mice; format: in vivo; details: two doses subcutaneously
Description: as §3

[10] = test system: Fusobacterium necrophorum; experiment: agar-dilution MIC; format: cell-based; details: Fusobacterium necrophorum 6054A; Table 14
[11] = test system: Peptostreptococcus intermedius; experiment: agar-dilution MIC; format: cell-based
[12] = test system: Hemophilus influenzae; experiment: agar-dilution MIC; format: cell-based
[13] = test system: Haemophilus parainfluenzae; experiment: agar-dilution MIC; format: cell-based; details: end point after 24 hours, Table 18
[14] = test system: rumen fluid; experiment: in vitro rumen fluid fermentation, volatile fatty acids; set-up: species or system steer; details: 16 hours at 38° C.
Description: Rumen fluid was obtained from a steer having a surgically-installed fistula opening into the rumen. The steer was maintained on a high-grain ration, the composition of which follows: A sample of rumen fluid was strained through 4 layers of cheesecloth and the filtrate was collected in a vacuum bottle. The particulate matter retained by the cheesecloth was resuspended in enough physiological buffer to return it to the original volume of the rumen fluid, and the suspension was again strained through cheesecloth. The buffer used is described below: The two filtrates were pooled in a separatory funnel and allowed to stand till particulate matter rose to the top. The clear layer was then separated and diluted 1:1 with the same buffer, and adjusted to pH 7.0. Ten ml. of the diluted rumen fluid thus prepared was placed in a 25 ml. flask with 90 mg. of finely-powdered high-grain ration, the composition of which is described above. The compound to be tested was weighed out and dissolved in the appropriate solvent, supra. The solution was placed on the finely-powdered ration in each test flask and dried. Two sets of four untreated control flasks each were also prepared. One set of four untreated control flasks was incubated for 16 hours at 38° C. with the test flasks. […] Fermentation in the incubated test and control flasks was stopped at the end of 16 hours by addition of 2 ml. of 25 percent metaphosphoric acid to each flask. All of the samples were allowed to settle, and the supernatant was analyzed by gas chromatographic methods for acetate, propionate, and butyrate. The analysis for each volatile fatty acid found in the zero-time controls was substracted from the analyses of the untreated controls and of the test flasks. The resulting values reflect the amount of each VFA produced during the 16-hour fermentation period. The data below are reported as the ratio of VFA's produced in treated flasks to VFA's produced in untreated control flasks.

[15] = test system: Shigella flexneri; details: Shigella flexneri SH-4; Table 11
Description: as §1

[16] = test system: Streptococcus faecalis; experiment: agar-dilution MIC; format: cell-based; details: Streptococcus faecalis X66; Table 7
[17] = test system: Viridans streptococcus; experiment: agar-dilution MIC; format: cell-based; details: Table 11
[18] = test system: Neisseria sp.; experiment: agar-dilution MIC; format: cell-based; details: Table 10
Description: The test results are recorded in Table 10, which follows.

[19] = B. thetaiotaomicron 1438, 24-hour, Table 12
[20] = Bacteroides thetaiotaomicron 1438, Table 14
[21] = Peptostreptococcus intermedius 1264, Table 14
[22] = Haemophilus influenzae 76, end point after 24 hours, Table 18
[23] = Haemophilus influenzae 251, Table 17
[24] = Haemophilus influenzae 312, end point after 24 hours, Table 18
[25] = Haemophilus influenzae 4842, end point after 24 hours, Table 18
[26] = Haemophilus influenzae 16836, end point after 24 hours, Table 18
[27] = Haemophilus influenzae Bond, end point after 24 hours, Table 18
[28] = Haemophilus influenzae Brun, Table 17
[29] = Haemophilus influenzae C.L., end point after 24 hours, Table 18
[30] = Haemophilus influenzae Mx366, end point after 24 hours, Table 18
[31] = Haemophilus influenzae Mx371, end point after 24 hours, Table 18
[32] = Haemophilus parainfluenzae 7901
[33] = Haemophilus parainfluenzae 9796

## N[C@H]1C(=O)N[C@@H]2Cc3ccc(c(Cl)c3)Oc3cc4cc(c3O)Oc3ccc(cc3Cl)[C@@H](O)[C@@H]3NC(=O)C(NC(=O)[C@@H]4NC(=O)[C@@H](NC2=O)c2cc(O)cc(c2)Oc2cc1ccc2O)c1ccc(O)c(c1)-c1c(O)cc(O)cc1[C@@H](C(=O)O)NC3=O [A41030 factor B]
[1]
  MIC: 64 mg/L (≈ 53.4 µM)
[2]; [19]
  MIC: 32 mg/L (≈ 26.7 µM)
[2]; [20]
  MIC: 32 mg/L (≈ 26.7 µM)
[3]
  possibly additional pKa's: > 10
[4]
  solubility (solvents): soluble in the same solvents as factor A
[5]
  MIC: 64 mg/L (≈ 53.4 µM)
[6]; Streptococcus sp. Group B 5
  MIC: 1 mg/L (≈ 0.834 µM)
[7]
  MIC: 0.25 mg/L (≈ 0.209 µM)
[8]
  ED50: 1.4 mg/kg
[9]
  ED50: < 0.43 mg/kg
[10]
  MIC: 8 mg/L (≈ 6.67 µM)
[11]; [21]
  MIC: 0.5 mg/L (≈ 0.417 µM)
[11]; Ps. intermedius 1264, Table 15
  MIC: ≤ 0.03 mg/L
[11]; Ps. intermedius 1524, Table 15
  MIC: 0.25 mg/L (≈ 0.209 µM)
[11]; Ps. intermedius 1624, Table 15
  MIC: 0.5 mg/L (≈ 0.417 µM)
[12]; [22]
  MIC: 4 mg/L (≈ 3.34 µM)
[12]; [23]
  MIC: 2 mg/L (≈ 1.67 µM)
[12]; [24]
  MIC: 4 mg/L (≈ 3.34 µM)
[12]; [25]
  MIC: 4 mg/L (≈ 3.34 µM)
[12]; [26]
  MIC: 4 mg/L (≈ 3.34 µM)
[12]; [27]
  MIC: 4 mg/L (≈ 3.34 µM)
[12]; [28]
  MIC: 8 mg/L (≈ 6.67 µM)
[12]; [29]
  MIC: 8 mg/L (≈ 6.67 µM)
[12]; [30]
  MIC: 4 mg/L (≈ 3.34 µM)
[12]; [31]
  MIC: 4 mg/L (≈ 3.34 µM)
[13]; [32]
  MIC: 16 mg/L (≈ 13.3 µM)
[13]; [33]
  MIC: 16 mg/L (≈ 13.3 µM)

## A41030 factor C
[2]; [19]
  MIC: 32 mg/L
[2]; [20]
  MIC: 64 mg/L
[3]
  possibly additional pKa's: > 10
[4]
  solubility (solvents): soluble in the same solvents as factor A
[5]
  MIC: 32 mg/L
[8]
  ED50: 6.7 mg/kg
[9]
  ED50: < 0.43 mg/kg
[10]
  MIC: 16 mg/L
[11]; Ps. intermedius 1264, Table 15
  MIC: ≤ 0.03 mg/L
[11]; Ps. intermedius 1624, Table 15
  MIC: 1.0 mg/L
[12]; [23]
  MIC: 4 mg/L
[12]; [28]
  MIC: 16 mg/L

## NC1C(=O)NC2Cc3ccc(c(Cl)c3)Oc3cc4cc(c3O)Oc3ccc(cc3Cl)C(O)C3NC(=O)C(NC(=O)C4NC(=O)C(NC2=O)c2cc(O)cc(c2)Oc2cc1ccc2O)c1cc(Cl)c(O)c(c1)-c1c(O)cc(O)cc1C(C(=O)O)NC3=O (stereo not drawn) [A41030 factor A]
[14]; 1 mcg./ml.
  Acetate, ratio of VFA's produced in treated flasks to untreated control flasks: 1.01
  Butyrate, ratio of VFA's produced in treated flasks to untreated control flasks: 0.66
  Propionate, ratio of VFA's produced in treated flasks to untreated control flasks: 1.31
[14]; 2 mcg./ml.
  Acetate, ratio of VFA's produced in treated flasks to untreated control flasks: 1.03
  Butyrate, ratio of VFA's produced in treated flasks to untreated control flasks: 0.94
  Propionate, ratio of VFA's produced in treated flasks to untreated control flasks: 1.33
[2]; [19]
  MIC: 64 mg/L (≈ 51.9 µM)
[2]; [20]
  MIC: 64 mg/L (≈ 51.9 µM)
[3]
  possibly additional pKa's: > 10.5
[15]
  MIC: 64 mg/L (≈ 51.9 µM)
[16]
  MIC: < 0.5 mg/L
[4]
  solubility (solvents): soluble in alcohol-water mixtures, in dimethylsulfoxide, in dimethylformamide, in dimethylsulfoxide-water mixtures, in dimethylformamide-water mixtures, in dilute aqueous acid, and in dilute aqueous base
[5]
  MIC: 64 mg/L (≈ 51.9 µM)
[17]; Viridans streptococcus SM-1134
  MIC: 0.5 mg/L (≈ 0.405 µM)
[17]; Viridans streptococcus SSI-910
  MIC: 0.25 mg/L (≈ 0.203 µM)
[17]; Viridans streptococcus SSII-895
  MIC: 0.25 mg/L (≈ 0.203 µM)
[6]; Streptococcus sp. Group B 5
  MIC: 1 mg/L (≈ 0.811 µM)
[6]; Streptococcus sp. Group B 14
  MIC: 0.06 mg/L (≈ 0.0486 µM)
[9]
  ED50: 1.4 mg/kg
[10]
  MIC: 8 mg/L (≈ 6.49 µM)
[18]; Neisseria sp. L. Nance
  MIC: 4.0 mg/L (≈ 3.24 µM)
[18]; Neisseria sp. Mitchell
  MIC: 4.0 mg/L (≈ 3.24 µM)
[18]; Neisseria sp. Sanders
  MIC: 1.0 mg/L (≈ 0.811 µM)
[18]; Neisseria sp. Schultz
  MIC: 8.0 mg/L (≈ 6.49 µM)
[18]; Neisseria sp. Woods
  MIC: 4.0 mg/L (≈ 3.24 µM)
[11]; [21]
  MIC: 1.0 mg/L (≈ 0.811 µM)
[11]; Ps. intermedius 1264, Table 15
  MIC: ≤ 0.03 mg/L
[11]; Ps. intermedius 1524, Table 15
  MIC: 0.5 mg/L (≈ 0.405 µM)
[11]; Ps. intermedius 1624, Table 15
  MIC: 1.0 mg/L (≈ 0.811 µM)
[12]; [22]
  MIC: 4 mg/L (≈ 3.24 µM)
[12]; [23]
  MIC: 2 mg/L (≈ 1.62 µM)
[12]; [24]
  MIC: 2 mg/L (≈ 1.62 µM)
[12]; [25]
  MIC: 2 mg/L (≈ 1.62 µM)
[12]; [26]
  MIC: 4 mg/L (≈ 3.24 µM)
[12]; [27]
  MIC: 2 mg/L (≈ 1.62 µM)
[12]; [28]
  MIC: 8 mg/L (≈ 6.49 µM)
[12]; [29]
  MIC: 4 mg/L (≈ 3.24 µM)
[12]; [30]
  MIC: 2 mg/L (≈ 1.62 µM)
[12]; [31]
  MIC: 2 mg/L (≈ 1.62 µM)
[12]; Hemophilus influenzae 75-312, Table 9
  MIC: 8 mg/L (≈ 6.49 µM)
[12]; Hemophilus influenzae 75-313, Table 9
  MIC: 16 mg/L (≈ 13 µM)
[12]; Hemophilus influenzae 75-364, Table 9
  MIC: 16 mg/L (≈ 13 µM)
[12]; Hemophilus influenzae 75-465, Table 9
  MIC: 32 mg/L (≈ 25.9 µM)
[12]; Hemophilus influenzae 75-19300, Table 9
  MIC: 16 mg/L (≈ 13 µM)
[12]; Hemophilus influenzae 75-90383, Table 9
  MIC: 16 mg/L (≈ 13 µM)
[12]; Hemophilus influenzae 4842, Table 9
  MIC: 8 mg/L (≈ 6.49 µM)
[12]; Hemophilus influenzae A. Hall, Table 9
  MIC: 16 mg/L (≈ 13 µM)
[12]; Hemophilus influenzae Bruno, Table 9
  MIC: 16 mg/L (≈ 13 µM)
[12]; Hemophilus influenzae C. Steele, Table 9
  MIC: 16 mg/L (≈ 13 µM)
[12]; Hemophilus influenzae G. Newton, Table 9
  MIC: 32 mg/L (≈ 25.9 µM)
[12]; Hemophilus influenzae Howard, Table 9
  MIC: 16 mg/L (≈ 13 µM)
[12]; Hemophilus influenzae Miller, Table 9
  MIC: 16 mg/L (≈ 13 µM)
[12]; Hemophilus influenzae P. Wylie, Table 9
  MIC: 16 mg/L (≈ 13 µM)
[12]; Hemophilus influenzae R251, Table 9
  MIC: 16 mg/L (≈ 13 µM)
[12]; Hemophilus influenzae R259, Table 9
  MIC: 16 mg/L (≈ 13 µM)
[12]; Hemophilus influenzae R272, Table 9
  MIC: 16 mg/L (≈ 13 µM)
[12]; Hemophilus influenzae R274, Table 9
  MIC: 16 mg/L (≈ 13 µM)
[12]; Hemophilus influenzae S. Ford, Table 9
  MIC: 16 mg/L (≈ 13 µM)
[13]; [32]
  MIC: 16 mg/L (≈ 13 µM)
[13]; [33]
  MIC: 16 mg/L (≈ 13 µM)
